# Experimental data: US20150105252A1, “SUBSTITUTED PYRAZOLES AS HERBICIDES” (E I DU PONT DE NEMOURS AND COMPANY, priority 2013, published 2015)
# Key:
# [1] = test system: pigweed; assay: Test D preemergence; assay type: in vivo, Amaranthus retroflexus; details: scale 0 to 100
# Text: (§1) Seeds of plant species selected from bluegrass (annual bluegrass, Poa annua), blackgrass (Alopecurus myosuroides), canarygrass (littleseed canarygrass, Phalaris minor), chickweed (common chickweed, Stellaria media), galium (catchweed bedstraw, Galium aparine), bromegrass, downy (downy bromegrass, Bromus tectorum), field poppy (Papaver rhoeas), field violet (Viola arvensis), foxtail, green (green foxtail, Setaria viridis), deadnettle (henbit deadnettle, Lamium amplexicaule), ryegrass, Italian (Italian ryegrass, Lolium multiflorum), kochia (Kochia scoparia), lambsquarters (Chenopodium album), oilseed rape (Brassica napus), pigweed (redroot pigweed, Amaranthus retroflexus), chamomile (scentless chamomile, Matricaria inodora), speedwell (bird's-eye speedwell, Veronica persica), barley, spring (spring barley, Hordeum vulgare), wheat, spring (spring wheat, Triticum aestivum), buckwheat, wild (wild buckwheat, Polygonum convolvulus), mustard, wild (wild mustard, Sinapis arvensis), oat, wild (wild oat, Avena fatua), radish, wild (wild radish, Raphanus raphanistrum), windgrass (Apera spica-venti), Russian thistle (Salsola kali), barley, winter (winter barley, Hordeum vulgare), and wheat, winter (winter wheat, Triticum aestivum) were planted into a silt loam soil and treated preemergence with test chemicals formulated in a non-phytotoxic solvent mixture which included a surfactant.
# (§2) At the same time, these species were planted in pots containing Redi-Earth® planting medium (Scotts Company, 14111 Scottslawn Road, Marysville, Ohio 43041) comprising spaghnum peat moss, vermiculite, wetting agent and starter nutrients and treated with postemergence applications of the test chemicals formulated in the same manner. Plants ranged in height from 2 to 18 cm (1- to 4-leaf stage). Treated plants and controls were maintained in a controlled growth environment for 14 to 21 days after which time all species were compared to controls and visually evaluated. Plant response ratings, summarized in Table D, are based on a scale of 0 to 100 where 0 is no effect and 100 is complete control. A dash (-) response means no test result.
# [2] = test system: wheat, winter; assay: Test D preemergence; assay type: in vivo, Triticum aestivum; details: scale 0 to 100
# Text: as §1, §2
# [3] = test system: wheat, spring; assay: Test D preemergence; assay type: in vivo, Triticum aestivum; details: scale 0 to 100
# Text: as §1, §2
# [4] = test system: field violet; assay: Test D postemergence; assay type: in vivo, Viola arvensis; details: scale 0 to 100
# Text: as §1, §2
# [5] = test system: lambsquarters; assay: Test D postemergence; assay type: in vivo, Chenopodium album; details: scale 0 to 100
# Text: as §1, §2
# [6] = test system: barley, winter; assay: Test D preemergence; assay type: in vivo, Hordeum vulgare; details: scale 0 to 100
# Text: as §1, §2
# [7] = test system: barley, spring; assay: Test D preemergence; assay type: in vivo, Hordeum vulgare; details: scale 0 to 100
# Text: as §1, §2
# [8] = test system: canarygrass; assay: Test D preemergence; assay type: in vivo, Phalaris minor; details: scale 0 to 100
# Text: as §1, §2
# [9] = test system: field poppy; assay: Test D preemergence; assay type: in vivo, Papaver rhoeas; details: scale 0 to 100
# Text: as §1, §2
# [10] = test system: radish, wild; assay: Test D preemergence; assay type: in vivo, Raphanus raphanistrum; details: scale 0 to 100
# Text: as §1, §2
# [11] = test system: crabgrass, Brazil; assay: Test F preemergence; assay type: in vivo, Digitaria horizontalis
# Text: (§3) Seeds of plant species selected from corn (Zea mays), soybean (Glycine max), velvetleaf (Abutilon theophrasti), lambsquarters (Chenopodium album), wild poinsettia (Euphorbia heterophylla), pigweed, palmer (palmer pigweed, Amaranthus palmeri), common waterhemp (Amaranthus rudis), surinam grass (Brachiaria decumbens), large crabgrass (Digitaria sanguinalis), crabgrass, Brazil (Brazilian crabgrass, Digitaria horizontalis), fall panicum (Panicum dichotomiflorum), giant foxtail (Setaria faberii), green foxtail (Setaria viridis), goosegrass (Eleusine indica), johnsongrass (Sorghum halepense), common ragweed (Ambrosia elation), barnyardgrass (Echinochloa crus-galli), southern sandbur (Cenchrus echinatus), arrowleaf sida (Sida rhombifolia), Italian ryegrass (Lolium multiflorum), dayflower, VA (Virginia (VA) dayflower, Commelina virginica), field bindweed (Convolvulus arvensis), cocklebur (common cocklebur, Xanthium strumarium), morningglory (Ipomoea coccinea), nightshade (eastern black nightshade, Solanum ptycanthum), kochia (Kochia scoparia), yellow nutsedge (Cyperus esculentus), and hairy beggarticks (Bidens pilosa), were planted into a silt loam soil and treated preemergence with test chemicals formulated in a non-phytotoxic solvent mixture which included a surfactant.
# (§4) At the same time, plants from these crop and weed species and also horseweed (Canada horseweed, Conyza canadensis), smartweed (ladysthumb smartweed, Polygonum persicaria), waterhemp_RES1, (ALS & Triazine resistant common waterhemp, Amaranthus rudis), and waterhemp_RES2, (ALS & HPPD resistant common waterhemp, Amaranthus rudis) were treated with postemergence applications of test chemicals formulated in the same manner. Plants ranged in height from 2 to 18 cm for postemergence treatments (1- to 4-leaf stage). Treated plants and controls were maintained in a greenhouse for 14 to 21 days, after which time all species were compared to controls and visually evaluated. Plant response ratings, summarized in Table F, are based on a scale of 0 to 100 where 0 is no effect and 100 is complete control. A dash (-) response means no test result.
# [12] = test system: yellow nutsedge; assay: Test F preemergence; assay type: in vivo, Cyperus esculentus
# Procedure, shortened: (§5)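 Formulated in surfactant-containing non-phytotoxic solvent; pre: applied to seeded silt loam; post: applied to plants 2–18 cm (1–4 leaves); greenhouse 14–21 d; visual 0–100 rating vs controls.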
# [13] = test system: velvetleaf; assay: Test F preemergence; assay type: in vivo, Abutilon theophrasti
# Procedure, shortened: as §5
# [14] = test system: common ragweed; assay: Test F preemergence; assay type: in vivo, Ambrosia elation
# Text: as §3, §4
# [15] = Preemergence, 16 g ai/ha, scale 0 to 100
# [16] = Preemergence, 62 g ai/ha, scale 0 to 100
# [17] = Preemergence, 125 g ai/ha, scale 0 to 100
# [18] = preemergence, 8 g ai/ha, scale 0 to 100, 100 is complete control
# [19] = preemergence, 16 g ai/ha, scale 0 to 100, 100 is complete control
# [20] = preemergence, scale 0 to 100, 100 is complete control
# [21] = Preemergence, 250 g ai/ha, scale 0 to 100
compound,measurement,setting,value
CCc1cc(C(=O)NC(C)C)nn1Cc1ccnc(C(F)(F)F)c1 [Compound 103],"Plant response rating, Pigweed",[1]; 31 g ai/ha,100
same,"Plant response rating, Pigweed",[1]; 62 g ai/ha,100
same,"Plant response rating, Pigweed",[1]; 125 g ai/ha,100
same,"Plant response rating, Pigweed",[1]; 250 g ai/ha,100
same,"Plant response rating, Wheat, Winter",[2]; 31 g ai/ha,0
same,"Plant response rating, Wheat, Winter",[2]; 62 g ai/ha,10
same,"Plant response rating, Wheat, Winter",[2]; 125 g ai/ha,65
same,"Plant response rating, Wheat, Winter",[2]; 250 g ai/ha,70
same,"Plant response rating, Wheat, Spring",[3]; 31 g ai/ha,0
same,"Plant response rating, Wheat, Spring",[3]; 62 g ai/ha,10
same,"Plant response rating, Wheat, Spring",[3]; 125 g ai/ha,25
same,"Plant response rating, Wheat, Spring",[3]; 250 g ai/ha,85
same,Field Violet plant response rating,"[4]; Postemergence, 31 g ai/ha",35
same,Field Violet plant response rating,"[4]; Postemergence, 125 g ai/ha",60
same,Field Violet plant response rating,"[4]; Postemergence, 250 g ai/ha",60
same,Field Violet plant response rating,"[4]; postemergence, 62 g ai/ha",55
same,Lambsquarters plant response rating,"[5]; Postemergence, 31 g ai/ha",35
same,Lambsquarters plant response rating,"[5]; Postemergence, 125 g ai/ha",40
same,Lambsquarters plant response rating,"[5]; Postemergence, 250 g ai/ha",60
same,Lambsquarters plant response rating,"[5]; postemergence, 62 g ai/ha",30
same,"Plant response rating, Barley, Winter",[6]; 31 g ai/ha,0
same,"Plant response rating, Barley, Winter",[6]; 62 g ai/ha,35
same,"Plant response rating, Barley, Winter",[6]; 125 g ai/ha,60
same,"Plant response rating, Barley, Winter",[6]; 250 g ai/ha,85
same,"Plant response rating, Barley, Spring",[7]; 31 g ai/ha,15
same,"Plant response rating, Barley, Spring",[7]; 62 g ai/ha,35
same,"Plant response rating, Barley, Spring",[7]; 125 g ai/ha,80
same,"Plant response rating, Barley, Spring",[7]; 250 g ai/ha,100
same,"Plant response rating, Canarygrass",[8]; 31 g ai/ha,5
same,"Plant response rating, Canarygrass",[8]; 62 g ai/ha,55
same,"Plant response rating, Canarygrass",[8]; 125 g ai/ha,80
same,"Plant response rating, Canarygrass",[8]; 250 g ai/ha,100
same,"Plant response rating, Field Poppy",[9]; 31 g ai/ha,100
same,"Plant response rating, Field Poppy",[9]; 62 g ai/ha,100
same,"Plant response rating, Field Poppy",[9]; 125 g ai/ha,100
same,"Plant response rating, Field Poppy",[9]; 250 g ai/ha,100
same,"Plant response rating, Radish, Wild",[10]; 31 g ai/ha,95
same,"Plant response rating, Radish, Wild",[10]; 62 g ai/ha,100
same,"Plant response rating, Radish, Wild",[10]; 125 g ai/ha,100
same,"Plant response rating, Radish, Wild",[10]; 250 g ai/ha,100
Cc1cc(C(=O)NC(C)C)nn1Cc1ccnc(C(F)(F)F)c1 [Compound 197],"Plant response rating, Crabgrass, Brazil",[11]; [15],85
same,"Plant response rating, Crabgrass, Brazil",[11]; [16],100
same,"Plant response rating, Crabgrass, Brazil",[11]; [17],100
same,"Plant response rating, Crabgrass, Brazil",[11]; [18],0
same,"Plant response rating, Crabgrass, Brazil",[11]; [19],75
same,"Plant response rating, Yellow Nutsedge",[12]; [16],5
same,"Plant response rating, Yellow Nutsedge",[12]; [17],25
same,"Plant response rating, Yellow Nutsedge",[12]; [18],0
same,"Plant response rating, Yellow Nutsedge",[12]; [19],0
same,"Plant response rating, Velvetleaf",[13]; [16],15
same,"Plant response rating, Velvetleaf",[13]; [17],25
same,"Plant response rating, Velvetleaf",[13]; [18],0
same,"Plant response rating, Velvetleaf",[13]; [19],0
same,"Plant response rating, Velvetleaf",[13]; [20],0
same,"Plant response rating, Common Ragweed",[14]; [15],35
same,"Plant response rating, Common Ragweed",[14]; [16],40
same,"Plant response rating, Common Ragweed",[14]; [17],80
same,"Plant response rating, Common Ragweed",[14]; [18],0
same,"Plant response rating, Common Ragweed",[14]; [19],0
CCc1cc(C(=O)NC2CC2)nn1Cc1ccnc(OCC(F)(F)F)c1 [Compound 200],"Plant response rating, Crabgrass, Brazil",[11]; [21],100
same,"Plant response rating, Crabgrass, Brazil",[11]; [15],35
same,"Plant response rating, Crabgrass, Brazil",[11]; [16],95
same,"Plant response rating, Crabgrass, Brazil",[11]; [17],100
same,"Plant response rating, Crabgrass, Brazil",[11]; [19],0
same,"Plant response rating, Yellow Nutsedge",[12]; [21],35
same,"Plant response rating, Yellow Nutsedge",[12]; [16],0
same,"Plant response rating, Yellow Nutsedge",[12]; [17],25
same,"Plant response rating, Yellow Nutsedge",[12]; [19],0
same,"Plant response rating, Velvetleaf",[13]; [21],85
same,"Plant response rating, Velvetleaf",[13]; [16],20
same,"Plant response rating, Velvetleaf",[13]; [17],80
same,"Plant response rating, Velvetleaf",[13]; [19],0
same,"Plant response rating, Velvetleaf",[13]; [20],0
same,"Plant response rating, Common Ragweed",[14]; [21],30
same,"Plant response rating, Common Ragweed",[14]; [15],0
same,"Plant response rating, Common Ragweed",[14]; [16],0
same,"Plant response rating, Common Ragweed",[14]; [17],5
same,"Plant response rating, Common Ragweed",[14]; [19],0
